{
  "source": "patent US6358885B1",
  "about": "“Substituted phenylheterocyclic herbicides” (Mississippi State University, priority 1992, dated 2002)",
  "experiment_in_all_cases": "Test B preemergence/postemergence greenhouse plant response rating 0 to 10",
  "details_in_all_cases": "0 to 10 scale",
  "key": {"[1]": {"system": "rape", "format": "in vivo, Brassica napus", "excerpt": "(§1) Seeds of barley (Hordeum vulgare), barnyardgrass (Echinochloa crus-galli), bedstraw (Galium aparine), blackgrass (Alopecurus myosuroides), […] (Bromus secalinus), chickweed (Stellaria media), cocklebur (Xanthium pensylvanicum), corn (Zea mays), cotton (Gossypium hirsutum), crabgrass (Digitaria spp.), giant foxtail (Setaria faberii), lambsquarters (Chenopodium album), morningglory (Ipomoea hederacea), rape (Brassica napus), rice (Oryza sativa), sorghum (Sorghum bicolor), soybean (Glycine max), sugar beet (Beta vulgaris), velvetleaf (Abutilon theophrasti), wheat (Triticum aestivum), wild buckwheat (Polygonum convolvulus), and wild oat (Avena fatua) and purple nutsedge. (Cyperus rotundus) tubers were planted and treated preemergence with test chemicals dissolved in a non-phytotoxic solvent. At the same time, these crop and weed species were also treated with postemergence applications of test chemicals. Plants ranged in height from two to eighteen cm (one to four leaf stage) for postemergence treatments. Treated plants and controls were maintained in a greenhouse for twelve to sixteen days, after which all species were compared to controls and visually evaluated. […] A dash (-) response means no test result."}, "[2]": {"system": "wild oat", "format": "in vivo, Avena fatua", "excerpt": "as §1"}, "[3]": {"system": "sugar beet", "format": "in vivo, Beta vulgaris", "excerpt": "as §1"}, "[4]": {"system": "lambsquarters", "format": "in vivo, Chenopodium album", "excerpt": "as §1"}, "[5]": {"system": "cheatgrass", "format": "in vivo, Bromus secalinus", "excerpt": "as §1"}, "[6]": {"system": "wheat", "format": "in vivo, Triticum aestivum", "excerpt": "as §1"}, "[7]": {"system": "barley", "format": "in vivo, Hordeum vulgare", "excerpt": "as §1"}, "[8]": {"system": "wild buckwheat", "format": "in vivo, Polygonum convolvulus", "excerpt": "as §1"}, "[9]": {"system": "bedstraw", "format": "in vivo, Galium aparine", "excerpt": "as §1"}, "[10]": {"system": "blackgrass", "format": "in vivo, Alopecurus myosuroides", "excerpt": "as §1"}, "[11]": {"system": "chickweed", "format": "in vivo, Stellaria media", "excerpt": "as §1"}},
  "data": [
    {"smiles": "Fc1cc(Cl)c(-c2ccccc2)cc1-c1nn2c(c1Cl)CCCC2", "note": "[Compound 46]", "values": [
      {"measurement": "Plant response rating, Rape", "setting": "[1]; POSTEMERGENCE, Rate 50 g/ha", "value": 4},
      {"measurement": "Plant response rating, Rape", "setting": "[1]; PREEMERGENCE, Rate 50 g/ha", "value": 0},
      {"measurement": "Plant response rating, Rape", "setting": "[1]; Rate 200 g/ha, POSTEMERGENCE", "value": 4},
      {"measurement": "Plant response rating, Rape", "setting": "[1]; Rate 200 g/ha, PREEMERGENCE", "value": 0},
      {"measurement": "Plant response rating, Wild oat", "setting": "[2]; POSTEMERGENCE, Rate 50 g/ha", "value": 2},
      {"measurement": "Plant response rating, Wild oat", "setting": "[2]; PREEMERGENCE, Rate 50 g/ha", "value": 0},
      {"measurement": "Plant response rating, Wild oat", "setting": "[2]; Rate 200 g/ha, POSTEMERGENCE", "value": 2},
      {"measurement": "Plant response rating, Sugar beet", "setting": "[3]; POSTEMERGENCE, Rate 50 g/ha", "value": 10},
      {"measurement": "Plant response rating, Sugar beet", "setting": "[3]; PREEMERGENCE, Rate 50 g/ha", "value": 0},
      {"measurement": "Plant response rating, Sugar beet", "setting": "[3]; Rate 200 g/ha, POSTEMERGENCE", "value": 9},
      {"measurement": "Plant response rating, Sugar beet", "setting": "[3]; Rate 200 g/ha, PREEMERGENCE", "value": 7},
      {"measurement": "Plant response rating, Lambsquarter", "setting": "[4]; POSTEMERGENCE, Rate 50 g/ha", "value": 9},
      {"measurement": "Plant response rating, Lambsquarter", "setting": "[4]; PREEMERGENCE, Rate 50 g/ha", "value": 0},
      {"measurement": "Plant response rating, Lambsquarter", "setting": "[4]; Rate 200 g/ha, POSTEMERGENCE", "value": 10},
      {"measurement": "Plant response rating, Lambsquarter", "setting": "[4]; Rate 200 g/ha, PREEMERGENCE", "value": 9},
      {"measurement": "Plant response rating, Cheatgrass", "setting": "[5]; POSTEMERGENCE, Rate 50 g/ha", "value": 3},
      {"measurement": "Plant response rating, Cheatgrass", "setting": "[5]; POSTEMERGENCE, Rate 200 g/ha", "value": 4},
      {"measurement": "Plant response rating, Cheatgrass", "setting": "[5]; PREEMERGENCE, Rate 50 g/ha", "value": 0},
      {"measurement": "Plant response rating, Cheatgrass", "setting": "[5]; Rate 200 g/ha, PREEMERGENCE", "value": 0},
      {"measurement": "Plant response rating, Wheat", "setting": "[6]; POSTEMERGENCE, Rate 50 g/ha", "value": 2},
      {"measurement": "Plant response rating, Wheat", "setting": "[6]; PREEMERGENCE, Rate 50 g/ha", "value": 0},
      {"measurement": "Plant response rating, Wheat", "setting": "[6]; Rate 200 g/ha, POSTEMERGENCE", "value": 3},
      {"measurement": "Plant response rating, Wheat", "setting": "[6]; Rate 200 g/ha, PREEMERGENCE", "value": 0},
      {"measurement": "Plant response rating, Barley", "setting": "[7]; POSTEMERGENCE, Rate 50 g/ha", "value": 2},
      {"measurement": "Plant response rating, Barley", "setting": "[7]; POSTEMERGENCE, Rate 200 g/ha", "value": 3},
      {"measurement": "Plant response rating, Barley", "setting": "[7]; PREEMERGENCE, Rate 50 g/ha", "value": 0},
      {"measurement": "Plant response rating, Barley", "setting": "[7]; Rate 200 g/ha, PREEMERGENCE", "value": 0},
      {"measurement": "Plant response rating, Wild buckwheat", "setting": "[8]; POSTEMERGENCE, Rate 50 g/ha", "value": 6},
      {"measurement": "Plant response rating, Wild buckwheat", "setting": "[8]; PREEMERGENCE, Rate 50 g/ha", "value": 0},
      {"measurement": "Plant response rating, Wild buckwheat", "setting": "[8]; Rate 200 g/ha, POSTEMERGENCE", "value": 10},
      {"measurement": "Plant response rating, Wild buckwheat", "setting": "[8]; Rate 200 g/ha, PREEMERGENCE", "value": 4},
      {"measurement": "Plant response rating, Bedstraw", "setting": "[9]; POSTEMERGENCE, Rate 50 g/ha", "value": 6},
      {"measurement": "Plant response rating, Bedstraw", "setting": "[9]; POSTEMERGENCE, Rate 200 g/ha", "value": 8},
      {"measurement": "Plant response rating, Bedstraw", "setting": "[9]; PREEMERGENCE, Rate 50 g/ha", "value": 0},
      {"measurement": "Plant response rating, Bedstraw", "setting": "[9]; Rate 200 g/ha, PREEMERGENCE", "value": 2},
      {"measurement": "Plant response rating, Blackgrass", "setting": "[10]; POSTEMERGENCE, Rate 50 g/ha", "value": 2},
      {"measurement": "Plant response rating, Blackgrass", "setting": "[10]; POSTEMERGENCE, Rate 200 g/ha", "value": 3},
      {"measurement": "Plant response rating, Blackgrass", "setting": "[10]; PREEMERGENCE, Rate 50 g/ha", "value": 0},
      {"measurement": "Plant response rating, Blackgrass", "setting": "[10]; Rate 200 g/ha, PREEMERGENCE", "value": 0},
      {"measurement": "Plant response rating, Chickweed", "setting": "[11]; POSTEMERGENCE, Rate 50 g/ha", "value": 3},
      {"measurement": "Plant response rating, Chickweed", "setting": "[11]; POSTEMERGENCE, Rate 200 g/ha", "value": 3},
      {"measurement": "Plant response rating, Chickweed", "setting": "[11]; PREEMERGENCE, Rate 50 g/ha", "value": 0},
      {"measurement": "Plant response rating, Chickweed", "setting": "[11]; Rate 200 g/ha, PREEMERGENCE", "value": 2}
    ]}
  ]
}
